Measured values published in patent publication US12594261B2, “Use of heterocyclic derivatives with cardiomyocyte proliferation activity for treatment of heart diseases” (SHANGHAI EAST HOSPITAL (EAST HOSPITAL, TONGJI UNIVERSITY …, priority 2019, dated 2026).

System: neonatal rat ventricular myocytes (NRVMs)
Assay: Myocyte proliferation assay (EdU) in neonatal rat ventricular myocytes
Type: cell-based
Details: Rattus norvegicus, Ventricular myocyte, growth relative to blank myocyte growth without compound added; for activation at 1 µM: 1 uM compound; for activation at 3 µM: 3 uM compound; for activation at 10 µM: 10 uM compound
Description: 1. Isolation of and Culture Neonatal Rat Ventricular Myocytes (NRVMs)
Ventricles from neonatal rats were separated from the atria, cut into small pieces (about 2×2 mm^2) and then dissociated in Ca^2+-free HBSS containing 0.125 mg ml-1 trypsin (Gibco), 10 μg ml-1 DNase II (Sigma) and 0.1 mg ml-1 collagenase type IV (Sigma). The digestion was carried out under constant stirring at 37° C. for 5 min. The supernatant was collected with FBS (Gibco) after each digestion period. After digestion, the collected supernatant was centrifuged at 1000 g for 10 min at room temperature, and then cell pellets were resuspended in DMEM (Gibco) supplemented with 10% FBS and with 100 uM 5-bromo-2′-deoxyuridine (Sigma). The resuspended cells were passed through a cell strainer ([…], BD Falcon) and seeded onto 100-mm plastic dishes for 2 h at 37° C. in a 5% CO2 to remove fibroblasts, the supernatant was then collected and plated onto 1% gelatin (Sigma)-coated dishes. 24 h after the seeding, the medium was changed to DMEM (Gibco) containing 2% FBS (Gibco), 1% insulin-transferrin-selenium (ITS; Gibco), 1% Penicillin-Streptomycin (Gibco). After 24 hours of low serum culture, remove the medium with DMEM (Gibco) containing 6% FBS (Gibco), 1% insulin-transferrin-selenium (ITS; Gibco), 1% Penicillin-Streptomycin (Gibco), different concentrations of compounds (the compounds were pre-diluted in the medium and the drug concentration was 10 uM, 3 uM, 1 uM, fully mixed). After 36 h add Edu substrate (Invitrogen) according to the manufacturer's guidelines, and then after 12 h cell can be used.
2.1. Immobilization: Remove the medium and fix the cells with […] in 200 ul (whichever is covered) for 15 min and wash the cells twice with 500 ul of PBS for 5 min each time.
2.2. Broken membrane: Add 200 ul of 0.3% Triton-X 100 (diluted in PBS) to each well, incubate for 10-15 min at room temperature (the time should not be too long), and wash the cells twice with 500 ul of PBS for 5 min each time.
2.3. Blocking: Add 200 ul of 10% normal goat serum (diluted with 0.1% PBST) to each well, incubate for 1 h at room temperature, and wash twice with 500 ul of 0.1% PBST for 5 min each time.
2.4. Primary antibody: dilute the primary antibody (abcam, ab8295) to blocking solution at a ratio of 1:200, add 100 ul per well, incubate for 1 h at room temperature (may be slightly longer than 2-3 h), wash the cells twice with 500 ul 0.1% PBST for 5 min each time.
2.5. Secondary antibody: Dilute the fluorescently labeled secondary antibody (abcam, ab150117) into blocking solution at a ratio of 1:200, add 100 ul per well, incubate for 1 h at room temperature (the time should not be too long), wash the cells twice with 0.1% PBST for 5 min each time, pay attention to the whole process. Protected from light.
2.6. Edu staining (Invitrogen C10338)
2.6.1 Prepare Click-iT® reaction cocktail according to Table 3. It was important to add the ingredients in the order listed in the table; otherwise, the reaction would not proceed optimally. Use the Click-iT® reaction cocktail within 15 minutes of preparation.
2.6.2 Add 0.1 mL of Click-iT® reaction cocktail to each well containing a coverslip. Rock the plate briefly to ensure that the reaction cocktail is distributed evenly over the coverslip.
2.6.3 Incubate the plate for 30 minutes at room temperature, protected from light.
2.6.4 Remove the reaction cocktail, then wash the cells twice with 0.1% PBST for 5 min each time.
2.7. DAPI staining: DAPI stain was diluted to PBS at a ratio of 1:1000, 100 ul per well, incubated for 30 min at room temperature, and the cells were washed twice with PBS for 5 min each.
We used Molecular Devices' Image Xpress Micro Confocal for high-throughput photo and data analysis.

| SMILES | activation at 1 µM [%] | activation at 3 µM [%] | activation at 10 µM [%] |
| --- | --- | --- | --- |
| COc1ccccc1NC1=N/C(=C\c2ccc3c(c2)OCO3)C(=O)N1 [TJU-B254, (4Z)-4-[(2H-1,3-benzodioxol-5-yl)methylidene]-2-[(2-methoxyphenyl)amino]-4,5-dihydro-1H-imidazol-5-one] | < 10 | < 10 | < 10 |
| O=C1NC(Nc2ccc3c(c2)OCO3)=N/C1=C\c1ccc2c(c1)OCO2 [TJU-B027, (4Z)-2-[(2H-1,3-benzodioxol-5-yl)amino]-4-[(2H-1,3-benzodioxol-5-yl)methylidene]-4,5-dihydro-1H-imidazol-5-one] | < 10 | < 10 | 10 to 50 |
| CN1C(=O)/C(=C/c2ccc3c(c2)OCO3)N=C1NCC1CC1 [TJU-B052, (4Z)-4-[(2H-1,3-benzodioxol-5-yl)methylidene]-2-[(cyclopropylmethyl)amino]-1-methyl-4,5-dihydro-1H-imidazol-5-one] | 10 to 50 | 10 to 50 | 10 to 50 |
| O=C1NC(Nc2ccccc2)=N/C1=C\c1ccc2c(c1)OC(F)(F)O2 [TJU-B028, (4Z)-4-[(2,2-difluoro-2H-1,3-benzodioxol-5-yl)methylidene]-2-(phenylamino)-4,5-dihydro-1H-imidazol-5-one] | < 10 | < 10 | 10 to 50 |
| NC1=N/C(=C\c2ccc3c(c2)OCO3)C(=O)N1 [TJU-B034, (4Z)-2-amino-4-[(2H-1,3-benzodioxol-5-yl)methylidene]-4,5-dihydro-1H-imidazol-5-one] | < 10 | < 10 | 10 to 50 |
| COc1ccc(/C=C2\N=C(N)N(C)C2=O)cc1OC [TJU-B070, (4Z)-2-amino-4-[(3,4-dimethoxyphenyl)methylidene]-1-methyl-4,5-dihydro-1H-imidazol-5-one] | < 10 | < 10 | < 10 |
| COc1ccc(NC2=N/C(=C\c3ccc4c(c3)OCCO4)C(=O)N2)cc1 [TJU-B006, (4Z)-4-[(2,3-dihydro-1,4-benzodioxin-6-yl)methylidene]-2-[(4-methoxyphenyl)amino]-4,5-dihydro-1H-imidazol-5-one] | 10 to 50 | 10 to 50 | > 50 |
| O=C1NC(NCCN2CCOCC2)=N/C1=C\c1ccc2c(c1)OCO2 [TJU-B004, (4Z)-4-[(2H-1,3-benzodioxol-5-yl)methylidene]-2-{[2-(morpholin-4-yl)ethyl]amino}-4,5-dihydro-1H-imidazol-5-one] | < 10 | 10 to 50 | > 50 |
| COc1ccc(/C=C2\N=C(Nc3ccccc3)NC2=O)cc1OC [TJU-B085, (4Z)-4-[(3,4-dimethoxyphenyl)methylidene]-2-(phenylamino)-4,5-dihydro-1H-imidazol-5-one] | < 10 | < 10 | < 10 |
| Cc1ccc(NC2=N/C(=C\c3ccc4c(c3)OCO4)C(=O)N2)cc1 [TJU-B110, (4Z)-4-[(2H-1,3-benzodioxol-5-yl)methylidene]-2-[(4-methylphenyl)amino]-4,5-dihydro-1H-imidazol-5-one] | 10 to 50 | < 10 | < 10 |
| NC1=N/C(=C\c2cc3c(cc2Cl)OCO3)C(=O)N1 [TJU-B064, (4Z)-2-amino-4-[(6-chloro-2H-1,3-benzodioxol-5-yl)methylidene]-4,5-dihydro-1H-imidazol-5-one] | < 10 | < 10 | < 10 |
| CC(C)NC1=N/C(=C\c2ccc3c(c2)OCO3)C(=O)N1C [TJU-B016, (4Z)-4-[(2H-1,3-benzodioxol-5-yl)methylidene]-1-methyl-2-[(propan-2-yl)amino]-4,5-dihydro-1H-imidazol-5-one] | < 10 | 10 to 50 | > 50 |
| CNC1=N/C(=C\c2ccc3c(c2)OCO3)C(=O)N1 [TJU-B033, (4Z)-4-[(2H-1,3-benzodioxol-5-yl)methylidene]-2-(methylamino)-4,5-dihydro-1H-imidazol-5-one] | < 10 | < 10 | 10 to 50 |
| O=C1NC(Nc2ccccc2)=N/C1=C\c1cc2c(cc1Cl)OCO2 [TJU-B011, (4Z)-4-[(6-chloro-2H-1,3-benzodioxol-5-yl)methylidene]-2-(phenylamino)-4,5-dihydro-1H-imidazol-5-one] | 10 to 50 | 10 to 50 | > 50 |
| NC1=N/C(=C\c2ccc3c(c2)OC(F)(F)O3)C(=O)N1 [TJU-B049, (4Z)-2-amino-4-[(2,2-difluoro-2H-1,3-benzodioxol-5-yl)methylidene]-4,5-dihydro-1H-imidazol-5-one] | 10 to 50 | < 10 | 10 to 50 |
| COc1ccc(NC2=N/C(=C\c3ccc4c(c3)OCO4)C(=O)N2)cc1 [TJU-B009, (4Z)-4-[(2H-1,3-benzodioxol-5-yl)methylidene]-2-[(4-methoxyphenyl)amino]-4,5-dihydro-1H-imidazol-5-one] | 10 to 50 | 10 to 50 | > 50 |
| COc1cccc(/C=C2\N=C(N)N(C)C2=O)c1 [TJU-B036, (4Z)-2-amino-4-[(3-methoxyphenyl)methylidene]-1-methyl-4,5-dihydro-1H-imidazol-5-one] | 10 to 50 | < 10 | 10 to 50 |
| CN1C(=O)/C(=C/c2cccc(Cl)c2)N=C1N [TJU-B056, (4Z)-2-amino-4-[(3-chlorophenyl)methylidene]-1-methyl-4,5-dihydro-1H-imidazol-5-one] | < 10 | < 10 | < 10 |
| O=C1NC(Nc2ccccc2)=N/C1=C\c1ccc2c(c1)OCCO2 [TJU-B007, (4Z)-4-[(2,3-dihydro-1,4-benzodioxin-6-yl)methylidene]-2-(phenylamino)-4,5-dihydro-1H-imidazol-5-one] | < 10 | 10 to 50 | > 50 |
| C/C(=C1/N=C(Nc2ccccc2)NC1=O)c1ccc2c(c1)OCO2 [TJU-B013, (4Z)-4-[1-(2H-1,3-benzodioxol-5-yl)ethylidene]-2-(phenylamino)-4,5-dihydro-1H-imidazol-5-one] | < 10 | 10 to 50 | > 50 |
| O=C1NC(C2CC2)=N/C1=C\c1ccc2c(c1)OCO2 [TJU-B059, (4Z)-4-[(2H-1,3-benzodioxol-5-yl)methylidene]-2-cyclopropyl-4,5-dihydro-1H-imidazol-5-one] | < 10 | < 10 | < 10 |
